Test results as given in patent US20230348376A1 (TEIJIN PHARMA LIMITED, priority 2020, published 2023).

Columns and labels:
[1] = Evaluation of calcium increasing action in normal mice (serum calcium); type: in vivo, mouse; details: for Serum calcium concentration: repeated oral once a day, 2 weeks, C57BL/6J mice; for Calcium concentration Fluctuation range: vs vehicle 8.9 mg/dL
Experimental: After acclimatizing C57BL/6J mice (7 weeks old, male) for 1 week, the mice were divided into groups of 5 mice based on the body weight, and administration of the compound or vehicle was started. The administration solution used was a compound (in ethanol) or ethanol diluted 100-fold with 0.1% Trion X-100 (SIGMA #X100-100ML)/saline, and the repeated oral administration at once a day was performed. After administration of 2 weeks, euthanasia was performed by collecting all blood under general anesthesia.

[2] = system: rat oligodendrocyte progenitor cells; test: Promotive activity of rat oligodendrocyte progenitor cell differentiation-2 (immunostaining of MBP); type: cell-based; details: Test 3; vitamin D derivative 2 μM, T3 30 nM; 4 days
Outline: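 Rat OPCs prepared by shaking in separation medium about 22 h at 37 °C, 200 rpm, and collecting the supernatant.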

[3] = Evaluation of brain penetration in mice (blood and brain concentration at brain Cmax); type: in vivo, mouse; details: 0.2 mg/kg single oral dose, C57BL/6J mice
Outline: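 Male C57BL/6J mice (8 weeks, n=3) dosed orally once at 1 […] mg/kg; plasma and brain collected at 0.25, 0.5, 1, 2, 4 and 8 h. Compound extracted with acetonitrile from brain homogenate and plasma, quantified by LC/MS/MS.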

[4] = system: oligodendrocyte progenitor cells derived from VDR knockout mice; test: Oligodendrocyte progenitor cell differentiation using VDR knockout mice (MBP immunostaining); type: cell-based; details: 1000 nM, 4 days, VDR KO mouse OPC
Experimental: The promotive activity of oligodendrocyte progenitor cell (OPC) differentiation of the vitamin D derivatives was evaluated by using oligodendrocyte progenitor cells derived from VDR knockout mice. (1) Collection of Neural Stem Cells from VDR KO Mouse […]
The oligodendrocyte progenitor cells derived from VDR KO mouse prepared were suspended in oligodendrocyte progenitor cell differentiation medium (2% B27 (Thermo Fisher Scientific #17504-044)/1% penicillin-streptomycin (Invitrogen #15140-122)/10 ng/mL CNTF (PeproTech #AF-450-13)/DMEM/F-12, no glutamine (Gibco #21331-020)), and were seeded on a 96-well plate coated with poly-L-ornithine (FUJIFILM Wako Pure Chemical Corporation #163-27421) under the condition of 2.0×10^4 cells/well. […] Subsequently, images of each well were acquired using a fluorescence microscope (KEYENCE CORPORATION #BZ-X800), the number of MBP-positive cells and Hoechst 33342-positive cells (total cells) were measured using an image analysis application (KEYENCE CORPORATION #BZ-X800 Analyzer), and then the ratio of number of MBP-positive cells/number of Hoechst33342-positive cells (total cells) was calculated, and then the ratio of those to the DMSO group was calculated as a result. […]

Serum calcium concentration ([1]; 20 μg/kg): 9.1 mg/dL
Calcium concentration Fluctuation range ([1]; 20 μg/kg): 0.2 mg/dL
Serum calcium concentration ([1]; 60 μg/kg): 9.1 mg/dL
Calcium concentration Fluctuation range ([1]; 60 μg/kg): 0.2 mg/dL
Serum calcium concentration ([1]; 200 μg/kg): 9.0 mg/dL
Calcium concentration Fluctuation range ([1]; 200 μg/kg): 0.1 mg/dL
Concentration in blood at brain Cmax ([3]; n=3): 84.1 ± 9.7 nM
Concentration in brain at brain Cmax ([3]; n=3): 140.8 ± 17.6 pmol/g
Kp ([3]; male, C57BL/6J, mouse, brain/plasma, po, 0.2 mg/kg, read-out: Concentration ratio in brain/in blood at brain Cmax): 1.67
SMILES: C[C@H](CN1CCOC[C@H]1C)[C@H]1CC[C@H]2/C(=C/C=C3C[C@@H](O)C[C@H](O)C3)CCC[C@]12C [Compound G005, (1R,3R)-5-(2-((1R,3aS,7aR,E)-7a-methyl-1-((S)-1-((R)-3-methylmorpholino)propan-2-yl)octahydro-4H-inden-4-ylidene)ethylidene)cyclohexane-1,3-diol]
Mean (number of MBP-positive cells/number of Hoechst33342-positive cells) [2]: 0.34
Mean (ratio MBP-positive cells/Hoechst33342-positive cells, relative to the DMSO group = 100.0) [4]: 215.1
